Key:
[1] = test system: NF-κB activation; test: Bioluminescence imaging of NF-κB-luciferase transgenic mice in the endotoxin shock model; format: in vivo; details: RA-V micelles 0.25 mg/kg i.v. 52, 28, 4 h before LPS 10 mg/kg i.p.; n = 4; particularly 2 h after LPS
Method: Fig. 2 RA-V prevents endotoxic shock and inhibits NF-κB activation in vivo. a–c RA-V prevents endotoxic shock in vivo. Mice (n = 6 per group) were intravenously injected with RA-V micelles (0.25 mg/kg body weight) or control micelles 52, 28, and 4 h before an intraperitoneal injection of LPS (10 mg/kg). One hour later, the relative levels of IL-6 and TNF-α mRNAs in the liver were assessed by quantitative RT-PCR (a), the serum IL-6 and TNF-α levels were quantified by ELISA (b), and the expression of p65 and IκBα phosphorylation in the liver were measured by immunoblot analysis c. d RA-V improved animal survival. Mice (n = 20 per group) were intravenously injected with RA-V micelles (0.25 mg/kg body weight) or control micelles 52, 28, and 4 h before intraperitoneal injection of LPS (20 mg/kg). Animal survival was recorded in 2–3 hours intervals. e RA-V inhibits NF-κB activation in vivo. […] The bioluminescent signals from all of the mice were detected and quantified. […]
The bioluminescence imaging of the NF-κB-luciferase transgenic mice was performed using a Xenogen IVIS Spectrum in vivo imaging system (Caliper Life Sciences). […] After 15 min, the in vivo bioluminescence was measured at the indicated times. The bioluminescent signals from all of the mice were detected and quantified.

[2] = biological target: T1, TAK1–TAB1 interaction (Homo sapiens, UniProt O43318+Q15750); test: Co-immunoprecipitation of TAK1 and TAB1; format: cell-based; details: HEK293T, Flag-TAK1 and HA-TAB1; RA-V 800 nM 6 h
T1 construct: expressed in transfected cells; host or cells: HEK293T
T1 sequence (O43318 1-579 isoform O43318-2): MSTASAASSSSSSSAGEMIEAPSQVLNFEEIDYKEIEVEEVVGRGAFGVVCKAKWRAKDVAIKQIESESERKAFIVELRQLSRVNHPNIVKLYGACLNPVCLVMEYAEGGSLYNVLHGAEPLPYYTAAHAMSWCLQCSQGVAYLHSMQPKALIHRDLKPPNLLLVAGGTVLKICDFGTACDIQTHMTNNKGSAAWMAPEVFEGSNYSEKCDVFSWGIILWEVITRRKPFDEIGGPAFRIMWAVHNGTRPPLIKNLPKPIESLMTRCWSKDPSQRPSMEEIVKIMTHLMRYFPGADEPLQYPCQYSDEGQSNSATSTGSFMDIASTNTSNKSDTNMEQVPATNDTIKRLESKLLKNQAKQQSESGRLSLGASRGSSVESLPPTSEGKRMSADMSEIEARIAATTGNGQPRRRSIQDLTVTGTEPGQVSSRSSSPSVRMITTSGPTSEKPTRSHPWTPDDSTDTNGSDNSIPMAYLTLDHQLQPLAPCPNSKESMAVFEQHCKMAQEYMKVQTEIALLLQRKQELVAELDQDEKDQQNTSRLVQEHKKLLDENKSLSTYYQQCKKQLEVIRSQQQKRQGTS
T1 sequence (Q15750 1-504 partner): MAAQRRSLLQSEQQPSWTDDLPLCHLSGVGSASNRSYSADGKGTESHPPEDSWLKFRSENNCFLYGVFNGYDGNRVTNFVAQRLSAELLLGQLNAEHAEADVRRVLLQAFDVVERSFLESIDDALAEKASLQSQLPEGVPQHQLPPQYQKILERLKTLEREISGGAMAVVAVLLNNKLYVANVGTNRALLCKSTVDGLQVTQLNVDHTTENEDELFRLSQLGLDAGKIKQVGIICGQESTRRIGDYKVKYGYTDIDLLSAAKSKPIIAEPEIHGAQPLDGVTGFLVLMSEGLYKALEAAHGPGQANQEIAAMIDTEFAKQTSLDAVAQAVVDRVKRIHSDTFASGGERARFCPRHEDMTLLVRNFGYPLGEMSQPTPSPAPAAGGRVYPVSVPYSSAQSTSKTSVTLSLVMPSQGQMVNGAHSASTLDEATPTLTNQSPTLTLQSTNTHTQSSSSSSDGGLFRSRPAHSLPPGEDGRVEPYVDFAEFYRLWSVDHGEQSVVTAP
Method: Fig. 4 RA-V blocks the interaction between TAK1 and TAB2. a RA-V blocked the exogenous TAK1–TAB2 interaction. HEK293T cells were transfected with Flag-TAK1 and HA-TAB2 for 24 h and then incubated with various concentrations of RA-V for 6 h. […] HEK293T cells were transfected with Flag-TAK1 and HA-TRAF6 or HA-TAB1 for 24 h and then incubated with RA-V (800 nM) for 6 h. The cell lysates were immunoprecipitated with HA antibody, and immunoblots were performed with the indicated antibodies. d RA-V blocked the endogenous TAK1–TAB2 interaction. HEK293T (left) or RAW264.7 (right) cells were incubated with 800 nM RA-V for 6 h and stimulated with 10 ng/mL TNF-α for 2 h or 1 μg/mL LPS for 3 h, respectively. The cell lysates were immunoprecipitated with TAK1 antibody or control IgG and then immunoblotted with the indicated antibodies. Each experiment was repeated at least three times
The cell lysates were prepared using radioimmunoprecipitation (RIPA) buffer containing 50 mM Tris-HCl pH 7.4, 150 mM NaCl, 1 mM ethylenediaminetetraacetic acid, 1% Triton X-100, 0.5% deoxycholate, and 0.1% sodium dodecyl sulfate, to which protease inhibitors (Roche) were added. The lysates were incubated with the indicated antibodies before adding 20 μL of Protein A/G agarose for 2 h. After four washes with the same buffer, the immunoprecipitates were boiled in 2 × SDS loading buffer.

Substance: RA-V
- NF-κB activation, in vivo bioluminescence [1]: inhibited NF-κB activation
- TAK1–TAB1 interaction [2]: does not disrupt

From article PMC6006164, “Natural cyclopeptide RA-V inhibits the NF-κB signaling pathway by targeting TAK1” (Cell Death & Disease, 2018)
